From patent US6653309B1, “Inhibitors of IMPDH enzyme technical field of the invention” (Vertex Pharmaceuticals Incorporated, priority 1999, dated 2003)

molecular target: IMPDH human type II (Homo sapiens, UniProt P12268); test: IMPDH Activity Inhibition Assay; format: biochemical; details: spectrophotometric NADH formation at 340 nm, 37° C., tight-binding equation of Henderson
Procedure: IMP dehydrogenase activity was assayed following an adaptation of the method first reported by Magasanik. [B. Magasanik et al., J. Biod. Chem., 226, p. 339 (1957), the disclosure of which is herein incorporated by reference]. Enzyme activity was measured spectrophotometrically, by monitoring the increase in absorbance at 340 nm due to the formation of NADH (ε340 is 6220 M^−1 cm^−1). The reaction mixture contained 0.1 M Tris pH 8.0, 0.1 M KCl, 3 mM EDTA, 2 mM DTT, […] and enzyme (IMPDH human type II) at a concentration of 15 to 50 nM. This solution is incubated at 37° C. for 10 minutes. The reaction is started by adding NAD to a final concentration of […] and the initial rate is measured by following the linear increase in absorbance at 340 nm for 10 minutes. For reading in a standard spectrophotometer (path length 1 cm) the final volume in the cuvette is 1.0 ml. The assay has also been adapted to a 96 well microtiter plate format; in this case the concentrations of all the reagents remain the same and the final volume is decreased to 200 μl.
For the analysis of inhibitors, the compound in question is dissolved in DMSO to a final concentration of 20 mM and added to the initial assay mixture for preincubation with the enzyme at a final volume of 2-5% (v/v). The reaction is started by the addition of NAD, and the initial rates measured as above. Ki determinations are made by measuring the initial, velocities in the presence of varying amounts of inhibitor and fitting the data using the tight-binding equation of Henderson (Henderson, P. J. F. (1972) Biochem. J. 127, 321].

SMILES | Ki
COc1ccc(C(=O)Nc2ccccc2OC)c(O)c1 [Compound 150] | 10 to 20 µM
CCCCC(=O)Oc1cc2ccccc2cc1C(=O)Nc1ccccc1OC [Compound 148] | 10 to 20 µM
O=C(Nc1ccccc1Cl)c1cc2ccccc2cc1O [Compound 155] | 10 to 20 µM
O=C(Nc1ccc(F)cc1)c1cc2ccccc2cc1O [Compound 166] | 10 to 20 µM
COc1ccccc1NC(=O)c1cc2ccccc2cc1OC(=O)c1ccccc1 [Compound 111] | < 10 µM
COc1cccc(OC)c1S(=O)(=O)Nc1ccc(C(C)(C)C)cc1 [Compound 311] | 10 to 20 µM
Cc1ccc(C(=O)Nc2ccccc2Oc2ccccc2)c(O)c1 [Compound 200] | 10 to 20 µM
CCCCC(=O)Oc1cc2ccc(Br)cc2cc1C(=O)Nc1ccccc1OC [Compound 153] | < 10 µM
COc1ccc(OC)c(S(=O)(=O)Nc2ccccc2C#N)c1 [Compound 312] | 10 to 20 µM
COc1ccc(OC)c(S(=O)(=O)Nc2cccc(Cl)c2)c1 [Compound 320] | 10 to 20 µM
Cc1cccc(NC(=O)c2cc3ccccc3cc2O)c1 [Compound 122] | 10 to 20 µM
COc1ccc(OC)c(S(=O)(=O)Nc2ccc(-c3ncon3)cc2)c1 [Compound 316] | 10 to 20 µM
CCOc1ccccc1NC(=O)c1cc2ccccc2cc1O [Compound 167] | 10 to 20 µM
COc1ccccc1N(C)C(=O)c1cc2cc(Br)ccc2cc1O [Compound 149] | 10 to 20 µM
COc1ccccc1NC(=O)c1cc2cc(Br)ccc2cc1OC(C)=O [Compound 104] | 10 to 20 µM
COc1ccccc1NC(=O)c1ccc2c(c1)OCO2 [Compound 134] | 10 to 20 µM
O=C(Nc1cccc(OC(F)(F)F)c1)c1ccc2ccccc2c1 [Compound 143] | < 10 µM
COc1cc(NC(=O)Cc2cccc(CNC(=O)O[C@H]3CCOC3)c2)ccc1-c1cnco1 [Compound 325] | < 10 µM
CCCC(=O)Oc1cc2ccccc2cc1C(=O)Nc1ccc(-c2cnco2)c(OC)c1 [Compound 114] | < 10 µM
O=C(Nc1ccccc1O)c1cc2ccccc2cc1O [Compound 190] | > 20 µM
COc1ccc(OC)c(S(=O)(=O)Nc2ccc([N+](=O)[O-])cc2)c1 [Compound 308] | 10 to 20 µM
COc1ccccc1NC(=O)c1cc2ccccc2cc1NC(=O)C(F)(F)F [Compound 137] | 10 to 20 µM
O=S(=O)(Nc1ccc(-c2cnco2)cc1)c1ccccc1 [Compound 301] | 10 to 20 µM

SMILES | Ki
COc1ccccc1NC(=O)c1cc2ccccc2cc1OC(=O)C(C)(C)C [Compound 112] | 10 to 20 µM
CSc1cccc(NC(=O)c2cc3ccccc3cc2O)c1 [Compound 173] | 10 to 20 µM
COc1ccccc1N(C)Cc1cc2cc(Br)ccc2cc1O [Compound 151] | < 10 µM
COc1cccc(NC(=O)c2cc3ccccc3cc2O)c1 [Compound 119] | > 20 µM
O=C(Nc1cccc(Cl)c1)c1cc2ccccc2cc1O [Compound 156] | 10 to 20 µM
N#Cc1cccc(NC(=O)c2cc3ccccc3cc2O)c1 [Compound 145] | 10 to 20 µM
COc1ccc(OC)c(S(=O)(=O)Nc2cccc(C#N)c2)c1 [Compound 309] | 10 to 20 µM
Cc1ccc(NC(=O)c2cc3ccccc3cc2O)cc1 [Compound 121] | 10 to 20 µM
COc1ccccc1NC(=O)c1ccccc1OC [Compound 108] | 10 to 20 µM
COc1ccccc1NC(=O)c1cc2cc(Br)ccc2cc1OCc1ccccc1 [Compound 141] | < 10 µM
COc1ccccc1S(=O)(=O)Nc1ccccc1O [Compound 324] | 10 to 20 µM
O=C(Nc1ccc(Oc2ccccc2)cc1)c1cc2ccccc2cc1O [Compound 185] | < 10 µM
O=C(Nc1ccc(Br)cc1)c1cc2ccccc2cc1O [Compound 131] | 10 to 20 µM
COc1ccc(Br)cc1S(=O)(=O)Oc1cc2ccccc2cc1N [Compound 318] | 10 to 20 µM
COc1ccccc1NCc1cc2cc(Br)ccc2cc1O [Compound 115] | < 10 µM
COc1ccccc1NS(=O)(=O)c1ccc2ccccc2c1 [Compound 302] | 10 to 20 µM
COc1ccccc1C(=O)Nc1cc2ccccc2cc1OC(=O)c1ccccc1OC [Compound 138] | < 10 µM
O=C(Nc1ccccc1Br)c1cc2ccccc2cc1O [Compound 129] | 10 to 20 µM
COc1ccc(C)cc1NC(=O)c1ccc2ccccc2c1O [Compound 191] | > 20 µM
Cc1ccccc1NC(=O)c1cc2ccccc2cc1O [Compound 132] | 10 to 20 µM
COc1ccc(OC)c(S(=O)(=O)Nc2cccc([N+](=O)[O-])c2)c1 [Compound 307] | 10 to 20 µM
O=C(Nc1ccccc1O)c1cc(Br)ccc1O [Compound 203] | > 20 µM
O=C(Nc1ccccc1Oc1ccccc1)c1cc(Br)ccc1O [Compound 204] | > 20 µM

SMILES | Ki
COc1cccc(NC(=O)c2cc3ccccc3cc2O)c1OC [Compound 184] | 10 to 20 µM
COc1cc(Cl)ccc1NC(=O)Sc1ccccc1O [Compound 305] | < 10 µM
COc1ccc(C)cc1NC(=O)c1cc(Br)ccc1O [Compound 202] | > 20 µM
COc1ccc(OC)c(S(=O)(=O)Nc2ccc(C#N)cc2)c1 [Compound 310] | 10 to 20 µM
O=C(Nc1cccc(C(F)(F)F)c1)c1cc2ccccc2cc1O [Compound 123] | < 10 µM
COc1cc(NC(=O)c2cccc(CNC(=O)O[C@H]3CCOC3)c2)ccc1-c1cnco1 [Compound 102] | < 10 µM
O=C(Nc1ccccc1Oc1ccccc1)c1cc2ccccc2cc1O [Compound 183] | < 10 µM
COc1cc(NC(=O)c2cc3ccccc3cc2O)cc(OC)c1 [Compound 188] | 10 to 20 µM
COc1ccc(NC(=O)c2cc3ccccc3cc2O)cc1OC [Compound 187] | 10 to 20 µM
C=CCN(C(=O)c1cc2ccccc2cc1O)c1ccccc1OC [Compound 106] | 10 to 20 µM
COc1ccccc1NC(=O)c1cc(Br)ccc1O [Compound 201] | 10 to 20 µM
COc1ccccc1NC(=O)c1cc2ccccc2cc1N [Compound 142] | 10 to 20 µM
COc1ccc(NC(=O)c2cc3ccccc3cc2O)cc1 [Compound 120] | 10 to 20 µM
COc1ccc(C)cc1NC(=O)Sc1ccccc1O [Compound 306] | 10 to 20 µM
N#Cc1ccccc1NC(=O)c1cc2ccccc2cc1O [Compound 144] | 10 to 20 µM
O=C(Nc1ccc(OC(F)(F)F)cc1)c1cc2ccccc2cc1O [Compound 136] | 10 to 20 µM
COc1ccc(C)cc1NC(=O)c1cc2ccccc2cc1O [Compound 178] | < 10 µM
COc1cc(NC(=O)c2cc3ccccc3cc2O)ccc1-c1cnco1 [Compound 126] | < 10 µM
O=C(Nc1cccnc1)c1cc2ccccc2cc1O [Compound 304] | > 20 µM
COc1ccccc1N(C)C(=O)c1cc2ccccc2cc1O [Compound 105] | 10 to 20 µM
COc1ccccc1NC(=O)c1ccccc1 [Compound 133] | 10 to 20 µM
COc1ccccc1C(=O)Nc1cc2ccccc2cc1O [Compound 139] | < 10 µM
COc1cc(NC(=O)Oc2cccc(CNC(=O)O[C@H]3CCOC3)c2)ccc1-c1cnco1 [Compound 326] | < 10 µM

SMILES | Ki
CCCC(=O)Oc1cc2ccccc2cc1C(=O)Nc1ccc(C#N)c(OC)c1 [Compound 113] | < 10 µM
O=C(Nc1ccccc1F)c1cc2ccccc2cc1O [Compound 162] | 10 to 20 µM
CCCC(=O)Oc1cc2ccccc2cc1C(=O)Nc1ccc(OC)cc1 [Compound 117] | > 20 µM
O=[N+]([O-])c1cccc(S(=O)(=O)Nc2ccc(-c3cnco3)cc2)c1 [Compound 300] | 10 to 20 µM
COc1ccccc1NC(=O)c1ccccc1O [Compound 147] | < 10 µM
CCC(C)c1ccc(OC)c(NC(=O)c2cc3ccccc3cc2O)c1 (centres unmarked) [Compound 164] | < 10 µM
O=C(Nc1ccc(C(F)(F)F)cc1)c1cc2ccccc2cc1O [Compound 124] | < 10 µM
COc1cc(Cl)c(C)cc1NC(=O)c1cc2ccccc2cc1O [Compound 181] | < 10 µM
CSc1ccc(NC(=O)c2cc3ccccc3cc2O)cc1 [Compound 175] | < 10 µM
COc1ccc(C(N)=O)cc1NC(=O)c1cc2ccccc2cc1O [Compound 165] | 10 to 20 µM
COc1ccc(C(F)(F)F)cc1NC(=O)c1cc2ccccc2cc1O [Compound 180] | 10 to 20 µM
COc1ccccc1NS(=O)(=O)c1ccccc1O [Compound 322] | 10 to 20 µM
COc1ccc(OC)c(NC(=O)c2cc3ccccc3cc2O)c1 [Compound 179] | 10 to 20 µM
COc1ccccc1NC(=O)c1ccc2ccccc2c1 [Compound 110] | 10 to 20 µM
COc1ccccc1NC(=O)c1cccc(-c2ccccc2)c1O [Compound 152] | 10 to 20 µM
COc1ccccc1C(=O)Nc1ccccc1O [Compound 195] | 10 to 20 µM
COc1ccccc1N(Cc1ccccc1)C(=O)c1cc2ccccc2cc1O [Compound 107] | 10 to 20 µM
COc1ccccc1NC(=O)c1ccc(C)cc1O [Compound 197] | > 20 µM
CSc1ccccc1NC(=O)c1cc2ccccc2cc1O [Compound 169] | < 10 µM
CCCC(=O)Oc1cc2ccccc2cc1C(=O)Nc1cccc(OC)c1 [Compound 116] | > 20 µM
